Patent publication US20250154174A1, “BICYCLIC HETEROCYCLES AS MRGPRX2 ANTAGONISTS” (Incyte Corporation, priority 2023, published 2025)

Legend:
Format in all cases: cell-based
MRGPRX2 [1] = molecular target: T1, MRGPRX2 (Homo sapiens, UniProt Q96LB1); test: MRGPRX2 FLIPR calcium mobilization assay; set-up: host or cells: CHO-K1; conditions: CHO-K1 cells stably expressing human MRGPRX2; agonist Cortistatin-14 at EC80; Ca2+ release
T1 sequence (Q96LB1 1-330): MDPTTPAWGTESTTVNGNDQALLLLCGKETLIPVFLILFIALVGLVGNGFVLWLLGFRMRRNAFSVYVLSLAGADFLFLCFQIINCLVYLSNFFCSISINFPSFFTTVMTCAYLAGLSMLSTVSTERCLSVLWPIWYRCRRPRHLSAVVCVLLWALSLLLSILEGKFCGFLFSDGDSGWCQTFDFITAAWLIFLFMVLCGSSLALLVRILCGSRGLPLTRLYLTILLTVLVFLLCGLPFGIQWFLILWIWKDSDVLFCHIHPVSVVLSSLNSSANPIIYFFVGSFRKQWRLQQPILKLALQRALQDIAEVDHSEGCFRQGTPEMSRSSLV
Procedure: Chinese hamster ovary (CHO-K1) cells stably expressing human MRGPRX2 were purchased from Genescript (Piscataway, NJ). The cells were maintained in culture medium (Ham's F-12K) containing 10% (v/v) FBS, 200 μg/mL Zeocin, 100 units/mL penicillin G and 100 μg/mL streptomycin (Life Technologies, Carlsbad, CA). For the assay, the cells were harvested and resuspended with culture medium without Zeocin before plating at 8000 cells per well in 20 μL in 384-well black clear bottom cell culture plates (VWR, Radnor, PA). After 24 h culture at 37° C. and 5% CO2, the cells were loaded with 20 μL/well of calcium dye (FLIPR Calcium 6 Assay Kit, Molecular Devices, San Jose, CA) diluted in loading buffer (1× Hank's Balanced Salt Solution (HBSS), 5 mM probenecid, 20 mM 4-(2-hydroxyethyl)-1-piperazineethanesulfonic acid (HEPES), pH 7.4, VWR, Radnor, PA) followed with 45 min. incubation at 37° C. and 40 min. at r.t. in the dark. Cells were then treated with the addition of 10 uL/well test compounds with a range of increasing concentrations diluted in the assay buffer (1×HBSS, 20 mM HEPES, pH 7.4, VWR, Radnor, PA) with FLIPR Penta (Molecular Devices. San Jose, CA) and incubated for 30 min. at r.t. Ca^2+ release was measured with FLIPR Penta with 10 s basal fluorescence measurement, then 12.5 μL of 5× agonist Cortistatin-14 (Tocris, Minneapolis, MN) at final concentration corresponding to the EC80 were added followed with continued fluorescence signal monitoring for an additional 110 s. The base line adjusted (median of first 10s base line) max value of the Relative Fluorescence Unit (RFU) was plotted against compound concentrations. Wells with no compound were served as the positive controls, and wells with high concentration of reference antagonist were used as negative controls. IC50 curves were globally fitted with 3- or 4-parameter Hill equation in a Genedata Screener (Genedata Basel, Switzerland).

MRGPRX2 [2] = molecular target: T1, MRGPRX2; test: MRGPRX2 IP1 HTRF assay; set-up: host or cells: CHO-K1; conditions: CHO-K1 cells stably expressing human MRGPRX2; agonist Cortistatin 14 1 μM; IP1 accumulation
Procedure: This assay measures compound inhibition of myo-Inositol 1 phosphate (IP1) accumulation in CHO-K1 cells. Chinese hamster ovary (CHO-K1) cells stably expressing human MRGPRX2 were purchased from GenScript (Piscataway, NJ).
For the HTRF IP1 determination, an IP-One GqKit (Perkin Elmer Cisbio, Waltham, MA), which includes all reagents and buffers in this protocol, was used. The cells were maintained in culture medium (Ham's F-12K) containing 10% (v/v) FBS, and 200 μg/mL Zeocin. For the assay, the cells were harvested and resuspended in culture medium with 2% FBS and without Zeocin, then were passed through a 40 μm filter. Cells were added at 20000 cells in a 5 μL/well to a 384-well white small volume cell culture plate (Greiner VWR, Radnor, PA) which contained 50 nL/well of test compound serially diluted at a selected concentration range in DMSO. 5 μL/well of prepared 2× Stimulation Buffer2 was then added to plates and was incubated at 37° C. with 5% CO2 for 1 h. 5 μL/well of agonist Cortistatin 14 (Bio-TechneR&D Systems, Minneapolis, MN) in 1×Stimulation Buffer 2, for a 1 μM final concentration, was then added to plates and incubated at 37° C. with 5% CO2 for 1 h. 6 μL/well of 1:20 diluted Detection Reagent Mix (d2 and Cryptate) was added to the plates and incubated for 1 h in the dark. Plates were read on the PHERAstar microplate reader (BMG Labtech Cary, NC) to determine the HTRF ratio of the acceptor and donor emission signals. The IP1 concentrations were calculated from a standard curve following the IP-One GQ kit instructions. Wells with DMSO only and wells with high concentration of reference antagonist were used as controls for normalization. Compound IC50 curves were globally fitted with 3- or 4-parameter Hill equation in a Genedata Screener (Genedata Basel, Switzerland).

MRGPRX2 [3] = molecular target: T1, MRGPRX2; test: MRGPRX2 β-Arrestin assay; set-up: host or cells: PathHunter CHO-K1; conditions: PathHunter CHO-K1 MRGPRX2 β-Arrestin cell line; agonist Cortistatin 14 0.25 μM
From the text: This assay measures compound inhibition of β-Arrestin recruitment, which is part of the G protein-independent pathway that results from the ligand-activated GPCR phosphorylation by specific GPCR kinases. The PathHunter CHO-K1 MRPGRX2 B-Arrestin Cell line stably expressing ProLink tagged MRGPRX2 and Enzyme Acceptor Tagged B-Arrestin was purchased from Eurofins DiscoverX, (Fremont, CA).
The cells were maintained in culture medium from the Europhins DiscoverX Cell Culture Kit-107 which includes FBS, hygromycin B and G418. For the assay, the cells were harvested and were resuspended with Cell Plating Reagent 2 (Eurofins DiscoverX). Cells were added 10000 cells in 25 μL/well to a 384-well black cell culture plate (Greiner VWR, Radnor, PA) which contained 125 nL/well of compound at a selected serially diluted concentration range or DMSO. The plate was incubated at 37° C. with 5% CO2 for 1 h. 2 μL/well of agonist Cortistatin 14 was diluted in Protein Dilution Buffer, (Eurofins DiscoverX) for a final concentration of 0.25 μM, was added and the plate was incubated at 37° C. with 5% CO2 for 90 min. 14 μL/well of Detection Reagent Mix (PathHunter Detection Kit, Eurofins DiscoverX) was added to the plates and further incubated for 1 h in the dark. Plates were read on the PHERAstar microplate reader (BMG Labtech Cary, NC) measuring luminescence 0.1 to 1 s per well. […]

Measured: IC50

FC(F)(F)c1cn2c(N[C@H]3CCC[C@@H](Nc4nccc5ncccc45)C3)cccc2n1 [Example 3, (1R,3S)—N^1-(1,6-Naphthyridin-5-yl)-N^3-(2-(trifluoromethyl)imidazo[1,2-a]pyridin-5-yl)cyclohexane-1,3-diamine]
0.1 to 100 nM: all assays above

FC(F)(F)c1cn2c(N[C@H]3CC[C@@H](Nc4nccn5cncc45)CC3)cccc2n1 [Example 5, (1s,4s)-N^1-(Imidazo[1,5-a]pyrazin-8-yl)-N^4-(2-(trifluoromethyl)imidazo[1,2-a]pyridin-5-yl)cyclohexane-1,4-diamine]
0.1 to 100 nM: all assays above
